Measured values reported in patent US20240317749A1, “THERAPEUTIC COMPOUNDS” (priority 2021, published 2024).
Converted amounts (≈) assume the structure as drawn.

How the values were obtained:
[1] = test system: N. gonorrhoeae ATCC 49226; assay: MIC assay for N. gonorrhoeae, broth microdilution in Todd-Hewitt (TH) broth; format: cell-based; conditions: Neisseria gonorrhoeae, ATCC49226; Antibacterial Activity against N. gonorrhoeae ATCC 49226 in TH
Description: MIC assays for N. gonorrhoeae were done using the ATCC 49226 strain. The procedure guidelines recommended by the Clinical and Laboratory Standards Institute (CLSI) for the broth microdilution MIC assay were modified by substituting […]. Also, the recommended bacterial inoculum was modified to meet the high inoculum demands needed for N. gonorrhoeae growth. A 96-well plate containing TH broth with 2-fold serial dilution of compounds was inoculated with log-phase bacterial at 2.5×10^7 CFU/mL. The final volume in each well was 200 μL. Each compound was tested in duplicate. The microtiter plates were incubated in an […] environment for 24 hours at 37° C. using the candle jar technique. Then the bacterial growth was tested by reading the plate with a SpectraMax iD5 plate reader (Molecular Devices, Inc.) at 600 nm. The MIC was defined as the lowest compound concentration that inhibited bacteria growth.

P. mirabilis ATCC 29906 = assay: MIC assay, CLSI broth microdilution in CAMH broth; format: cell-based, Proteus mirabilis
Protocol: (§1) MIC assays for various Gram-negative and Gram-positive strains were conducted in accordance with the CLSI guidelines for broth microdilution. A 96-well plate containing CAMH broth with 2-fold serial dilution of compounds was inoculated with log-phase bacterial at 5×10^5 CFU/mL. The final volume in each well was 100 μL. Each compound was tested in duplicate. The microtiter plates were incubated in an aerobic environment for 18 hours at 37° C. Then the bacterial growth was tested by reading the plate with a SpectraMax iD5 plate reader (Molecular Devices, Inc.) at 600 nm. The MIC was defined as the lowest compound concentration that inhibited bacteria growth.
(§2) The following Gram-negative and Gram-positive strains were used in the aerobic MIC procedure: • P. aeruginosa ATCC 27853 • A. baumannii ATCC 19606 • E. coli ATCC 25922 • E. coli W4573 • E. coli N43 • K. pneumoniae ATCC 10031 • K. pneumoniae ATCC 13883 • S. sonnei ATCC 29930 • P. mirabilis ATCC 29906 • Methicillin-susceptible S. aureus (MSSA) ATCC 19636 • Methicillin-resistant S. aureus (MRSA) ATCC 33951

[2] = test system: Methicillin-susceptible S. aureus (MSSA) ATCC 19636; assay: MIC assay, CLSI broth microdilution in CAMH broth; format: cell-based, Staphylococcus aureus
Protocol: as §1, §2

[3] = test system: Methicillin-resistant S. aureus (MRSA) ATCC 33591; assay: MIC assay, CLSI broth microdilution in CAMH broth; format: cell-based, Staphylococcus aureus
Protocol: as §1, with “growth. […]” for “growth.”

| SMILES | MIC [1] [µg/mL] | Intrinsic MIC in CAMH (P. mirabilis ATCC 29906) | Intrinsic MIC in CAMH [2] | Intrinsic MIC in CAMH [3] |
| --- | --- | --- | --- | --- |
| Nc1nc(N)c2ccc3c(ccn3Cc3ccccc3)c2n1 [Example 1, 7-benzyl-7H-pyrrolo[2,3-h]quinazoline-2,4-diamine] | 8 (≈ 27.6 µM) | – | – | – |
| Nc1nc(N)c2ccc3c(ccn3Cc3cccc(C(F)(F)F)c3)c2n1 [Example 8, 7-(3-(trifluoromethyl)benzyl)-7H-pyrrolo[2,3-h]quinazoline-2,4-diamine] | 8 (≈ 22.4 µM) | – | – | – |
| Nc1nc(N)c2ccc3c(ccn3Cc3ccc(C(F)(F)F)c(F)c3)c2n1 [Example 11, 7-(3-fluoro-4-(trifluoromethyl)benzyl)-7H-pyrrolo[2,3-h]quinazoline-2,4-diamine] | 4 (≈ 10.7 µM) | – | – | – |
| Nc1nc(N)c2ccc3c(ccn3Cc3cc(Cl)ccc3Cl)c2n1 [Example 13, 7-(2,5-dichlorobenzyl)-7H-pyrrolo[2,3-h]quinazoline-2,4-diamine] | 16 (≈ 44.7 µM) | – | – | – |
| Nc1nc(N)c2ccc3c(ccn3Cc3ccc(-c4ccccc4)cc3)c2n1 [Example 17, 7-([1,1′-biphenyl]-4-ylmethyl)-7H-pyrrolo[2,3-h]quinazoline-2,4-diamine] | 8 (≈ 21.9 µM) | – | – | – |
| COC(=O)c1ccc(-c2ccc(Cn3ccc4c5nc(N)nc(N)c5ccc43)cc2)cc1 [Example 20, methyl 4′-((2,4-diamino-7H-pyrrolo[2,3-h]quinazolin-7-yl)methyl)-[1,1′-biphenyl]-4-carboxylate] | > 32 | – | – | – |
| Cc1cc2c3nc(N)nc(N)c3ccc2n1Cc1cccc(Br)c1 [Example 30, 7-(3-bromobenzyl)-8-methyl-7H-pyrrolo[2,3-h]quinazoline-2,4-diamine] | 16 (≈ 41.9 µM) | – | – | – |
| N#Cc1ccccc1-c1ccc(Cn2ccc3c4nc(N)nc(N)c4ccc32)c(F)c1F [Example 40, 4′-((2,4-diamino-7H-pyrrolo[2,3-h]quinazolin-7-yl)methyl)-2′,3′-difluoro-[1,1′-biphenyl]-2-carbonitrile] | – | >64¤ | 0.25¤ | ≤0.063¤ |
| N#Cc1ccccc1-c1ccc(Cn2ccc3c4nc(N)nc(N)c4c(Br)cc32)cc1F [Example 46, 4′-((2,4-diamino-5-bromo-7H-pyrrolo[2,3-h]quinazolin-7-yl)methyl)-2′-fluoro-[1,1′-biphenyl]-2-carbonitrile] | – | >64¤ | 4¤ | 2¤ |
| Nc1nc(N)c2c(Br)cc3c(ccn3Cc3cccc(Br)c3)c2n1 [Example 47, 5-bromo-7-(3-bromobenzyl)-7H-pyrrolo[2,3-h]quinazoline-2,4-diamine] | – | 8¤ | 4¤ | 4¤ |
| Nc1nc(NCc2cccc(Br)c2)nc2c1c(Br)cc1c2ccn1Cc1cccc(Br)c1 [Example 48, 5-bromo-N^2,7-bis(3-bromobenzyl)-7H-pyrrolo[2,3-h]quinazoline-2,4-diamine] | – | >64¤ | >64¤ | >64¤ |
| N#Cc1ccccc1-c1ccc(Cn2ccc3c4nc(N)nc(N)c4cnc32)cc1F [Example 51, 4′-((2,4-diamino-7H-pyrrolo[3′,2′:5,6]pyrido[4,3-d]pyrimidin-7-yl)methyl)-2′-fluoro-[1,1′-biphenyl]-2-carbonitrile] | – | >64¤ | ≤0.063¤ | ≤0.063¤ |
| N#Cc1ccccc1-c1ccc(CNc2nc(N)c3cnc4c(ccn4Cc4ccc(-c5ccccc5C#N)c(F)c4)c3n2)cc1F [Example 52, 4′-((4-amino-2-(((2′-cyano-2-fluoro-[1,1′-biphenyl]-4-yl)methyl)amino)-7H-pyrrolo[3′,2′:5,6]pyrido[4,3-d]pyrimidin-7-yl)methyl)-2′-fluoro-[1,1′-biphenyl]-2-carbonitrile] | – | >64¤ | >64¤ | >64¤ |
| C#Cc1ccc(Cn2ccc3c4nc(N)nc(N)c4cnc32)cc1 [Example 53, 7-(4-ethynylbenzyl)-7H-pyrrolo[3′,2′:5,6]pyrido[4,3-d]pyrimidine-2,4-diamine] | – | >64¤ | ≤0.063¤ | ≤0.063¤ |
| CN[C@H](CC(C)C)C(=O)N[C@H]1C(=O)N[C@@H](CC(N)=O)C(=O)N[C@H]2C(=O)N[C@H]3C(=O)N[C@H](C(=O)N[C@H](C(=O)O)c4cc(O)cc(O)c4-c4cc3ccc4O)[C@H](O)c3ccc(c(Cl)c3)Oc3cc2cc(c3O[C@@H]2O[C@H](CO)[C@@H](O)[C@H](O)[C@H]2O[C@H]2C[C@](C)(N)[C@H](O)[C@H](C)O2)Oc2ccc(cc2Cl)[C@H]1O [VAN, reference compound] | – | – | 2¤ | 2¤ |

Continued, in another order:

| MIC [1] [µg/mL] | SMILES | Intrinsic MIC in CAMH (P. mirabilis ATCC 29906) | Intrinsic MIC in CAMH [2] | Intrinsic MIC in CAMH [3] |
| --- | --- | --- | --- | --- |
| 16 (≈ 50.9 µM) | N#Cc1ccc(Cn2ccc3c4nc(N)nc(N)c4ccc32)cc1 [Example 5, 4-((2,4-diamino-7H-pyrrolo[2,3-h]quinazolin-7-yl)methyl)benzonitrile] | – | – | – |
| 16 (≈ 42.9 µM) | Nc1nc(N)c2ccc3c(ccn3Cc3ccc(OC(F)(F)F)cc3)c2n1 [Example 9, 7-(4-(trifluoromethoxy)benzyl)-7H-pyrrolo[2,3-h]quinazoline-2,4-diamine] | – | – | – |
| 4 (≈ 12.1 µM) | CC(C)c1ccc(Cn2ccc3c4nc(N)nc(N)c4ccc32)cc1 [Example 10, 7-(4-isopropylbenzyl)-7H-pyrrolo[2,3-h]quinazoline-2,4-diamine] | – | – | – |
| 4 (≈ 11.7 µM) | Nc1nc(N)c2ccc3c(ccn3Cc3cc(Cl)ccc3F)c2n1 [Example 12, 7-(5-chloro-2-fluorobenzyl)-7H-pyrrolo[2,3-h]quinazoline-2,4-diamine] | – | – | – |
| > 64 | COc1cc(Cn2ccc3c4nc(N)nc(N)c4ccc32)cc(OC)c1 [Example 14, 7-(3,5-dimethoxybenzyl)-7H-pyrrolo[2,3-h]quinazoline-2,4-diamine] | – | – | – |
| 8 (≈ 21 µM) | Nc1nc(N)c2ccc3c(ccn3Cc3ccc(Oc4ccccc4)cc3)c2n1 [Example 15, 7-(4-phenoxybenzyl)-7H-pyrrolo[2,3-h]quinazoline-2,4-diamine] | – | – | – |
| 16 (≈ 43.8 µM) | Nc1nc(N)c2ccc3c(ccn3Cc3cccc(-c4ccccc4)c3)c2n1 [Example 18, 7-([1,1′-biphenyl]-3-ylmethyl)-7H-pyrrolo[2,3-h]quinazoline-2,4-diamine] | – | – | – |
| 0.25 (≈ 0.64 µM) | N#Cc1ccccc1-c1ccc(Cn2ccc3c4nc(N)nc(N)c4ccc32)cc1 [Example 19, 4′-((2,4-diamino-7H-pyrrolo[2,3-h]quinazolin-7-yl)methyl)-[1,1′-biphenyl]-2-carbonitrile] | – | – | – |
| 16 (≈ 43.3 µM) | Nc1nc(N)c2ccc3c(ccn3Cc3ccc(Br)cn3)c2n1 [Example 22, 7-((5-bromopyridin-2-yl)methyl)-7H-pyrrolo[2,3-h]quinazoline-2,4-diamine] | – | – | – |
| > 64 | Cn1c(Cn2ccc3c4nc(N)nc(N)c4ccc32)nc2ccccc21 [Example 23, 7-((1-methyl-1H-benzo[d]midazole-2-yl)methyl)-7H-pyrrolo[2,3-h]quinazoline-2,4-diamine] | – | – | – |
| 4 (≈ 10.7 µM) | Nc1nc(N)c2ccc3c(ccn3Cc3nc(-c4ccccc4)cs3)c2n1 [Example 24, 7-((4-phenylthiazol-2-yl)methyl)-7H-pyrrolo[2,3-h]quinazoline-2,4-diamine] | – | – | – |
| 4 (≈ 15 µM) | CC(C)=CCn1ccc2c3nc(N)nc(N)c3ccc21 [Example 25, 7-(3-methylbut-2-en-1-yl)-7H-pyrrolo[2,3-h]quinazoline-2,4-diamine] | – | – | – |
| 8 (≈ 31.6 µM) | Nc1nc(N)c2ccc3c(ccn3CC3CC3)c2n1 [Example 28, 7-(cyclopropylmethyl)-7H-pyrrolo[2,3-h]quinazoline-2,4-diamine] | – | – | – |
| 32 (≈ 105 µM) | Nc1nc(N)c2ccc3c(ccn3C(=O)c3ccccc3)c2n1 [Example 29, (2,4-diamino-7H-pyrrolo[2,3-h]quinazolin-7-yl)(phenyl)methanone] | – | – | – |
| > 64 | Cc1cc2c3nc(N)nc(N)c3ccc2n1Cc1ccc(-c2ccccc2-c2nnn[nH]2)cc1 [Example 32, 7-((2′-(1H-tetrazol-5-yl)-[1,1′-biphenyl]-4-yl)methyl)-8-methyl-7H-pyrrolo[2,3-h]quinazoline-2,4-diamine] | – | – | – |
| 8 (≈ 22.2 µM) | Cc1cc2c3nc(N)nc(N)c3ccc2n1Cc1nc2ccccc2s1 [Example 33, 7-(benzo[d]thiazol-2-ylmethyl)-8-methyl-7H-pyrrolo[2,3-h]quinazoline-2,4-diamine] | – | – | – |
